In PubChem BioAssay (NCI):
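Grown in 96-well plates, cells were treated for 48 hours with each compound at five concentrations. Insufficient inhibition: endpoint recorded as highest concentration tested. Here, GI50 denotes the concentration required for 50% inhibition of growth. At the TGI there is no net growth.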

Legend:
Assay in all cases: DTP human tumour cell line panel, 48 h
DU-145 prostate = system: DU-145 prostate
HS 578T breast = system: HS 578T breast
SF-539 CNS = system: SF-539 CNS
CAKI-1 renal = system: CAKI-1 renal
SK-MEL-2 melanoma = system: SK-MEL-2 melanoma
HOP-92 NSCLC = system: HOP-92 NSCLC
U251 CNS = system: U251 CNS
T-47D breast = system: T-47D breast
UACC-62 melanoma = system: UACC-62 melanoma
OVCAR-5 ovarian = system: OVCAR-5 ovarian

Compound	GI50 (DU-145 prostate)	TGI (DU-145 prostate)	GI50 (HS 578T breast)	TGI (HS 578T breast)	GI50 (SF-539 CNS)	TGI (SF-539 CNS)	GI50 (CAKI-1 renal)	TGI (CAKI-1 renal)	GI50 (SK-MEL-2 melanoma)	TGI (SK-MEL-2 melanoma)	GI50 (HOP-92 NSCLC)	TGI (HOP-92 NSCLC)	GI50 (U251 CNS)	TGI (U251 CNS)	GI50 (T-47D breast)	TGI (T-47D breast)	GI50 (UACC-62 melanoma)	TGI (UACC-62 melanoma)	GI50 (OVCAR-5 ovarian)	TGI (OVCAR-5 ovarian)
Cc1cc(Nc2ccc(Cl)cc2)nc(NCCCNc2ccnc3cc(Cl)ccc23)n1	1840 nM	3350 nM	1840 nM	3980 nM	1650 nM	3130 nM	1530 nM	2900 nM	1860 nM	3570 nM	1010 nM	2530 nM	1500 nM	2880 nM	1830 nM	3810 nM	1790 nM	3580 nM	1660 nM	3090 nM
NC(Cc1ccccc1CP(=O)(O)O)C(=O)O (stereo not given)	–	> 100000 nM	–	> 100000 nM	–	> 100000 nM	–	> 100000 nM	–	> 100000 nM	–	> 100000 nM	–	> 100000 nM	–	> 100000 nM	–	> 100000 nM	–	> 100000 nM
